Values joined by “and” are separate entries in the source; they are usually repeats but may differ in a detail not shown here. Identical values can stand only once.
What was measured:
[1] = tested on: serum growth hormone (GH); test: In vivo GH release in pentobarbital anesthetized rats, i.v. injection; parameters: species or system rat; conditions: sacrificed 10 min after injection, N = 6
Procedure: (§1) Immature female Sprague-Dawley rats were obtained from the Charles River Laboratories (Wilmington, Mass.). After arrival they were housed at 25° C. with a 14:10 hour light:dark cycle. Water and Purina rat chow were available ad libitum. Pups were kept with their mothers until 21 days of age.
(§2) Twenty-six day old rats, six rats per treatment group, were anesthetized interperitoneally with 50 mg/kg of pentobarbital 20 minutes prior to i.v. treatment with peptide. Normal saline with 0.1% gelatin was the vehicle for intravenous (i.v.) injections of the peptides. The anesthetized rats, weighing 55-65 grams, were injected i.v. with the quantity of growth hormone releasing compounds indicated in Table 3. Injection was made as a 0.1 mL solution into the jugular vein.
(§3) All animals were sacrificed by guillotine 10 minutes after the final test injection (see Table 3). Trunk blood for the determination of blood GH levels was collected following decapitation. After allowing the blood to clot, it was centrifuged and the serum was separated from the clot. Serum was kept frozen until the day of sampling for radioimmunoassay (RIA) determination of growth hormone levels according to the following procedure, as developed by the National Institute of Arthritis, Diabetes and Digestive and Kidney Diseases (NIADDK).
Reagents are generally added to the RIA analysis tubes at a single sitting, at refrigerator temperature (about 4° C.) in the following sequence:
(b) "cold" (i.e., non-radioactive) standard or unknown serum sample to be analyzed,
(c) radio-iodinated growth hormone antigen, and
(d) growth hormone antiserum.
Reagent addition is generally carried out so that there is achieved a final RIA tube dilution of about 1:30,000 (antiserum to total liquid volume; vol:vol).
(§4) The mixed reagents are then typically incubated at room temperature (about 25° C.) for about 24 hours prior to addition of a second antibody (e.g., goat or rabbit anti-monkey gamma globulin serum) which binds to and causes precipitation of the complexed growth hormone antiserum. Precipitated contents of the RIA tubes are then analyzed for the number of counts in a specified period of time in a gamma scintillation counter. A standard curve is prepared by plotting number of radioactive counts versus growth hormone (GH) level. GH levels of unknowns are then determined by reference to the standard curve.
(§5) Serum GH was measured by RIA with reagents provided by the National Hormone and Pituitary Program.
Serum levels in Table 3 are recorded in ng/mL in terms of the rat GH standard of 0.61 International Units/mg (IU/mg). Data is recorded as the mean +/- standard error of the mean (SEM). Statistical analysis was performed with Student's t-test. In Table 3 the results shown are the average of studies with six rats.
The procedure of Example 2 was repeated.

[2] = tested on: serum growth hormone (GH); test: In vivo GH release in rats, subcutaneous injection, sacrifice at +15 minutes; parameters: species or system rat; conditions: Table 7, sacrifice +15 minutes, N = 6
Procedure: as §1, §2, §3, §4, §5
The general procedure of Example 2 was followed except the peptides were injected subcutaneously rather than intravenously and the sacrifice time was +15 minutes rather than +10 minutes.

[3] = Table 5, total dose 0.10 μg i.v.
[4] = Table 5, total dose 0.30 μg i.v.
[5] = Table 5, total dose 1.00 μg i.v.
[6] = Table 6, total dose 0.30 μg i.v.
[7] = Table 6, total dose 1.00 μg i.v.
[8] = Table 5, total dose 3.00 μg i.v.

## 3Me-His-DβNal-Ala-Trp-DPhe-Lys-NH2
[1]; Table 5, total dose 0.03 μg i.v.
  GH Released Serum GH: 122 ng/mL and 134 ng/mL
[1]; [3]
  GH Released Serum GH: 185 ng/mL and 112 ng/mL and 159 ng/mL
[1]; [4]
  GH Released Serum GH: 101 ng/mL and 78 ng/mL
[1]; [5]
  GH Released Serum GH: 134 ng/mL

## DAla-DμNal-Ala-Trp-LysNH2
[1]; [6]
  GH Released Serum GH: 187 ng/mL
[1]; [7]
  GH Released Serum GH: 257 ng/mL
[1]; Table 6, total dose 3.00 μg i.v.
  GH Released Serum GH: 198 ng/mL
[1]; Table 6, total dose 10.00 μg i.v.
  GH Released Serum GH: 193 ng/mL
[1]; Table 6, total dose 30.00 μg i.v.
  GH Released Serum GH: 236 ng/mL

## DAla-Tcc-Ala-Trp-DPhe-Lys-NH2
[1]; [4]
  GH Released Serum GH: 149 ng/mL
[1]; [8]
  GH Released Serum GH: 142 ng/mL

## Tip-Ala-DβNal-Ala-Trp-DPhe-Lys-NH2
[1]; [3]
  GH Released Serum GH: 168 ng/mL
[1]; [4]
  GH Released Serum GH: 167 ng/mL
[1]; [5]
  GH Released Serum GH: 152 ng/mL
[1]; [8]
  GH Released Serum GH: 272 ng/mL

## α,γABU-DβNal-Ala-Trp-DPhe-LysNH2
[1]; Table 6, total dose 0.03 μg i.v.
  GH Released Serum GH: 621 ng/mL
[1]; Table 6, total dose 0.10 μg i.v.
  GH Released Serum GH: 1230 ng/mL
[1]; [6]
  GH Released Serum GH: 2385 ng/mL
[1]; [7]
  GH Released Serum GH: 3011 ng/mL

## αγABU-DβNal-Ala-Phe-DPhe-Lys-NH2
[2]; total dose 1.00 μg s.c.
  GH Released Serum GH + SEM: 1441 ± 203 ng/mL
[2]; total dose .03 μg s.c.
  GH Released Serum GH + SEM: 192 ± 29 ng/mL
[2]; total dose .10 μg s.c.
  GH Released Serum GH + SEM: 288 ± 62 ng/mL
[2]; total dose .30 μg s.c.
  GH Released Serum GH + SEM: 461 ± 90 ng/mL

## γABU-DβNal-Ala-Phe-DPhe-Lys-NH2
[2]; total dose 1.00 μg s.c.
  GH Released Serum GH + SEM: 1127 ± 110 ng/mL
[2]; total dose .03 μg s.c.
  GH Released Serum GH + SEM: 197 ± 31 ng/mL
[2]; total dose .10 μg s.c.
  GH Released Serum GH + SEM: 182 ± 20 ng/mL
[2]; total dose .30 μg s.c.
  GH Released Serum GH + SEM: 524 ± 116 ng/mL

Source: patent US5776901A, “Polypeptide analogues having growth hormone releasing activity” (Administrators of the Tulane Educational Fund, priority 1992, dated 1998)
